In brackets after ≈: the same amount, converted by molar mass. Like-named read-outs stand apart in the source and are kept apart here.
Tests used:
[1] = test system: S. aureus (ATCC FDA209-P); assay: Antibacterial MIC, broth microdilution; format: cell-based, Staphylococcus aureus; settings: read-out: MIC (µM) S. aureus
Method: (§1) The serial dilution technique was utilized to evaluate the antimicrobial activity of synthesized derivatives against Gram-negative, Gram-positive, and fungal strains. […] To dissolve the reference and sample derivatives, DMSO was employed as a solvent. The synthesized compounds were evaluated for their antibacterial effectiveness against E. coli, P. aeruginosa, and S. aureus, and their antifungal potential was tested against Candida albicans and Aspergillus niger.
(§2) The antibacterial and antifungal activity of potential synthesized compounds was evaluated using the broth microdilution method to determine their minimum inhibitory concentration (MIC). […] Individual MIC (µM) values were determined using serial dilution technique with Mueller–Hinton Broth (MHB) media for bacterial growth and Roswell Park Memorial Institute (RPMI) media for fungal growth. […] The turbidity of the spore suspension was corrected to 0.5 McFarland by adding distilled water. Stock solutions of synthesized compounds were prepared in DMSO solvent and serially diluted to determine the MIC value. Each spore (0.1 mL) was put into each well holding the finally serially diluted synthesized compound concentration, standards, and controls. […] Agar plate spotting was carried out for each spore and incubated for 24 h at 37 ± 1 °C (for bacteria spores), 48 h at 37 ± 1 °C (for C. albicans), and 7 days at 25 ± 1 °C (for A. niger) to determine CFU. To assess reproducibility, duplicate tests were performed on three separate days.

[2] = test system: C. albicans (ATCC SC5314); assay: Antifungal MIC, broth microdilution; format: cell-based, Candida albicans; settings: for MIC: read-out: MIC (µM) C. albicans
Method: as §1, §2

[3] = test system: A. niger (MTCC 1688); assay: Antifungal MIC, broth microdilution; format: cell-based, Aspergillus niger; settings: for MIC: read-out: MIC (µM) A. niger
Method: as §1, §2

[4] = test system: P. aeruginosa (ATCC 27853); assay: Antibacterial MIC, broth microdilution; format: cell-based, Pseudomonas aeruginosa; settings: read-out: MIC (µM) P. aeruginosa
Method: as §1, §2

[5] = test system: E. coli (ATCC 25922); assay: Antibacterial MIC, broth microdilution; format: cell-based, Escherichia coli; settings: read-out: MIC (µM) E. coli
Method: as §1, §2

[6] = test system: MCF-7 breast cancer cell line; assay: Anticancer activity (MTT assay); format: cell-based; settings: Homo sapiens
Method: The anticancer potential of synthesized derivatives was assessed by targeting the MCF-7 breast cancer cell line.
The potential newly synthesized derivatives were evaluated for their cytotoxic activity on the MCF-7 cell line (sourced from NCCS in Pune, India) using the MTT (3-[4,5-dimethylthiazol-2-yl]-2,5-diphenyl tetrazolium bromide) assay. To perform the assay, 10,000 cells were placed in each well of 96-well plates and left to incubate for 24 h in Dulbecco’s Modified Eagle Medium (DMEM). The medium was supplemented with 1% antibiotic solution and 10% FBS (fetal bovine serum), and the incubation occurred at a temperature of 37 °C in an environment containing 5% CO2. […] The cultures were then subjected to additional 2 h incubation. Upon concluding the experiment, the culture supernatant was extracted, and the cellular matrix was dissolved in 100 µL of DMSO. The absorbance of the resulting solution underwent evaluation using an ELISA plate reader (iMark, Biorad, Hercules, CA, USA) at 540 nm. Triplicate measurements were performed to enhance the reliability and reproducibility of the results obtained.

[7] = biological target: T1, DHFR (Homo sapiens, UniProt P00374); assay: In vitro DHFR inhibition assay (DHFR assay kit CS0340, spectrophotometric, 340 nm); format: biochemical
T1 construct: purchased Sigma-Aldrich CS0340
T1 sequence (P00374 1-187): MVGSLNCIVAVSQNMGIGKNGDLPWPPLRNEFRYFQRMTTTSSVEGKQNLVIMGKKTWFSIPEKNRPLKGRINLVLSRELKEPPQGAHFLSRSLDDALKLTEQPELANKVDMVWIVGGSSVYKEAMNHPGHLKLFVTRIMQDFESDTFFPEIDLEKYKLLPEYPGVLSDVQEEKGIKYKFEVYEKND
Method: This assessment was carried out using the DHFR assay kit (catalog number CS0340, Sigma-Aldrich, Burlington, MA, USA) by using a spectrophotometric method. The enzymatic […] of dihydrofolic acid to tetrahydrofolic acid was monitored at 340 nm for 180 s, following the procedure recommended by the manufacturer of the assay kit. […] To evaluate the ability of the synthesized derivatives to block DHFR activity, a spectrophotometric assay technique was utilized at 340 nm for 180 seconds to detect the enzyme-catalyzed conversion of dihydrofolic acid to tetrahydrofolic acid. The DHFR assay kit (Sigma-Aldrich, catalog number CS0340) was used in this assay. The kit was tested using recombinant DHFR, NIH 3T3, A431, and CHO cell lines, as well as rat kidney, brain, liver, and muscle tissue extracts. Dihydrofolic acid, NADPH, standard drug solution, assay buffer, and DHFR stock solutions were prepared according to the instructions given in the technical bulletin that came along with the test kit. Except for the assay buffer, all stock solutions were stored on ice.
Each well of a 96-well clear microplate was filled with a calculated amount of assay buffer (190 μL), followed by 6 μL of diluted DHFR, which was thoroughly mixed. […] The microplate was then covered with parafilm, and the contents were mixed by inversion. Following the addition of 1 μL of substrate dihydrofolic acid, the absorbance was measured at 340 nm over a period of 180 s using an ELISA reader (Gen BioTek Microplate Reader, Winooski, VT, USA) in kinetic mode at room temperature. Plotting the relationship between absorbance and time generates the slope for each test inhibitor sample. The relative inhibition percentages were calculated using Equation (1). % relative inhibition = (slope of [EC] − slope of [S]/slope of [EC]) × 100(1) where S is the sample of interest, EC (enzyme control).

[8] = Staphylococcus aureus, FDA209, MHB, 37 °C, 24 h
[9] = Candida albicans, SC5314, RPMI, 37 °C, 48 h
[10] = Aspergillus niger, MTCC1688, 168 h, RPMI, 25 °C, 7 days
[11] = Pseudomonas aeruginosa, ATCC27853, MHB, 37 °C, 24 h
[12] = Escherichia coli, ATCC25922, MHB, 37 °C, 24 h
[13] = MCF7, 24 h, read-out: Anticancer IC50 (µM), n = 3
[14] = MCF7, read-out: Anticancer IC50 (µM), n = 3, MCF-7, MTT, 24 h
[15] = read-out: DHFR Inhibition IC50 (µM) ± SD, n = 3, 180 s

O=[N+]([O-])c1cccc(C=Nn2c(S)nnc2C=Cc2ccc(O)c(O)c2)c1 [CTh3, 4-(2-(4-(3-nitrobenzylideneamino)-5-mercapto-4H-1,2,4-triazol-3-yl)vinyl)benzene-1,2-diol]
MIC [1, 8]: 5 µM (≈ 1.92 µg/mL)
MIC [2, 9]: 20 µM (≈ 7.67 µg/mL)
MIC [3, 10]: 83 µM (≈ 31.8 µg/mL)
MIC [4, 11]: 10 µM (≈ 3.83 µg/mL)
MIC [5, 12]: 10 µM (≈ 3.83 µg/mL)

C[C@@H](c1ncncc1F)[C@](O)(Cn1cncn1)c1ccc(F)cc1F [Voriconazole, reference compound]
MIC [2, 9]: 0.34 µM (≈ 0.119 µg/mL)
MIC [3, 10]: 5 µM (≈ 1.75 µg/mL)

Oc1ccc(C=Nn2c(S)nnc2C=Cc2ccc(O)c(O)c2)cc1 [CTh4, 4-(2-(4-(4-hydroxylbenzylideneamino)-5-mercapto-4H-1,2,4-triazol-3-yl)vinyl)benzene-1,2-diol]
IC50 [6, 13]: 122 ± 7.3 µM
MIC [1, 8]: 22 µM (≈ 7.8 µg/mL)
MIC [2, 9]: 11 µM (≈ 3.9 µg/mL)
MIC (µM) A. niger ([3]; RPMI, 25 °C, 7 days): -
MIC [4, 11]: 5 µM (≈ 1.77 µg/mL)
MIC [5, 12]: 5 µM (≈ 1.77 µg/mL)

CC1(C)S[C@@H]2[C@H](NC(=O)[C@H](N)c3ccccc3)C(=O)N2[C@H]1C(=O)O [Ampicillin, reference compound]
MIC [1, 8]: 11 µM (≈ 3.84 µg/mL)
MIC [4, 11]: 22 µM (≈ 7.69 µg/mL)
MIC [5, 12]: 11 µM (≈ 3.84 µg/mL)

COc1cccc2c1C(=O)c1c(O)c3c(c(O)c1C2=O)C[C@@](O)(C(=O)CO)C[C@@H]3O[C@H]1C[C@H](N)[C@H](O)[C@H](C)O1 [doxorubicin, reference compound]
IC50 [6, 14]: 3.62 µM

Oc1ccc(/C=C/c2nnc(S)n2/N=C/c2cc3ccccc3cc2O)cc1O [CTh7, 4-(2-(4-(4-naphthalen-2-ol)-5-mercapto-4H-1,2,4-triazol-3-yl)vinyl)benzene-1,2-diol]
IC50 [6, 14]: 8.53 ± 0.19 µM
MIC [1, 8]: 19 µM (≈ 7.68 µg/mL)
MIC (µM) C. albicans ([2]; RPMI, 37 °C, 48 h): -
IC50 ([7]; 180 s): 0.15 ± 0.02 µM
MIC (µM) A. niger ([3]; RPMI, 25 °C, 7 days): -
MIC [4, 11]: 19 µM (≈ 7.68 µg/mL)
MIC [5, 12]: 39 µM (≈ 15.8 µg/mL)

CN(C)[C@@H]1C(O)=C(C(N)=O)C(=O)[C@@]2(O)C(O)=C3C(=O)c4c(O)cccc4[C@@](C)(O)[C@H]3C[C@@H]12 [Tetracycline, reference compound]
MIC [1, 8]: 144 µM (≈ 64 µg/mL)
MIC [4, 11]: 36 µM (≈ 16 µg/mL)
MIC [5, 12]: 36 µM (≈ 16 µg/mL)

OC(Cn1cncn1)(Cn1cncn1)c1ccc(F)cc1F [Fluconazole, reference compound]
MIC [2, 9]: 0.81 µM (≈ 0.248 µg/mL)
MIC [3, 10]: 260 µM (≈ 79.7 µg/mL)

COc1ccc(C=Nn2c(S)nnc2C=Cc2ccc(O)c(O)c2)cc1 [CTh1, 4-(2-(4-(4-methoxybenzylideneamino)-5-mercapto-4H-1,2,4-triazol-3-yl)vinyl)benzene-1,2-diol]
IC50 [6, 14]: 148 ± 11.4 µM
MIC [1, 8]: 43 µM (≈ 15.8 µg/mL)
MIC [2, 9]: 173 µM (≈ 63.7 µg/mL)
IC50 ([7]; 180 s): 17 ± 1.1 µM
MIC (µM) A. niger ([3]; RPMI, 25 °C, 7 days): -
MIC [4, 11]: 86 µM (≈ 31.7 µg/mL)
MIC [5, 12]: 86 µM (≈ 31.7 µg/mL)

O=[N+]([O-])c1ccccc1C=Nn1c(S)nnc1C=Cc1ccc(O)c(O)c1 [CTh6, 4-(2-(4-(2-nitrobenzylideneamino)-5-mercapto-4H-1,2,4-triazol-3-yl)vinyl)benzene-1,2-diol]
IC50 [6, 13]: 89.2 ± 4.17 µM
MIC ([1]; Staphylococcus aureus, FDA209, 24 h): 10 µM (≈ 3.83 µg/mL)
MIC ([2]; Candida albicans, SC5314, 48 h): 41 µM (≈ 15.7 µg/mL)
IC50 ([7]; 180 s): 10.5 ± 0.7 µM
MIC ([3]; Aspergillus niger, MTCC1688, 168 h): 83 µM (≈ 31.8 µg/mL)
MIC ([4]; Pseudomonas aeruginosa, ATCC27853, 24 h): 10 µM (≈ 3.83 µg/mL)
MIC ([5]; Escherichia coli, ATCC25922, 24 h): 20 µM (≈ 7.67 µg/mL)

Nn1c(S)nnc1C=Cc1ccc(O)c(O)c1 [CTh]
MIC ([1]; MHB, 37 °C, 24 h): 63 µM (≈ 15.8 µg/mL)
MIC (µM) C. albicans ([2]; RPMI, 37 °C, 48 h): -
IC50 [7, 15]: 16.9 ± 1.2 µM
MIC ([3]; RPMI, 25 °C, 7 days): 127 µM (≈ 31.8 µg/mL)
MIC ([4]; MHB, 37 °C, 24 h): 127 µM (≈ 31.8 µg/mL)
MIC ([5]; MHB, 37 °C, 24 h): 255 µM (≈ 63.8 µg/mL)

COc1cc(Cc2cnc(N)nc2N)cc(OC)c1OC [Trimethoprim, reference compound]
MIC [1, 8]: 63 µM (≈ 18.3 µg/mL)
MIC [2, 9]: 255 µM (≈ 74 µg/mL)
MIC [3, 10]: 127 µM (≈ 36.9 µg/mL)
MIC [4, 11]: 31 µM (≈ 9 µg/mL)
MIC [5, 12]: 31 µM (≈ 9 µg/mL)

4-(2-(4-((2,4-dichlorocyclohexa-1,5-dienyl)methyleneamino)-5-mercapto-4H-1,2,4-triazol-3-yl)vinyl)benzene-1,2-diol [CTh10]
MIC ([1]; MHB, 37 °C, 24 h): 19 µM
MIC ([2]; RPMI, 37 °C, 48 h): 39 µM
IC50 [7, 15]: 11.3 ± 0.92 µM
MIC ([3]; RPMI, 25 °C, 7 days): 39 µM
MIC ([4]; MHB, 37 °C, 24 h): 39 µM
MIC ([5]; MHB, 37 °C, 24 h): 39 µM
